Laboratory results reported in PubChem BioAssay AID270 (DTP/NCI, 2004).
Several values for one entry are separate records, joined by “and”; a condition that tells them apart may be missing. Equal values may be shown once. Inconclusive results are not listed.

System: BDF1 mice, s.c. Lewis lung carcinoma, T/C %
Test: NCI In Vivo Anticancer Drug Screen. Data for tumor model Lewis Lung Carcinoma (subcutaneous) in B6D2F1 (BDF1) mice
Experimental: The antitumor activity of compounds was measured in mice bearing transplantable tumors. Survival or tumor size were measured and the results are expressed as the measurement made in the treated group (T) divided by the measurement made in the vehicle treated control group (C). The tumor model used in this assay is Lewis Lung Carcinoma (subcutaneous) in B6D2F1 (BDF1) mice

## Nc1nc(SN=Nc2ccc(S(N)(=O)=O)cc2)c2[nH]cnc2n1
endpoint: mean tumor weight, dose: 0.6 mg/kg/injection, schedule: Q01DX011 (ip), vehicle: saline, higher = larger tumour
  T/C: 64 % of control
endpoint: mean tumor weight, dose: 1.0 mg/kg/injection, schedule: Q01DX011 (ip), vehicle: saline, higher = larger tumour
  T/C: 43 % of control
endpoint: mean tumor weight, dose: 1.5 mg/kg/injection, schedule: Q01DX011 (ip), vehicle: saline, higher = larger tumour
  T/C: 93 % of control
endpoint: mean tumor weight, dose: 2.2 mg/kg/injection, schedule: Q01DX011 (ip), vehicle: other, higher = larger tumour
  T/C: 67 % of control
endpoint: mean tumor weight, dose: 2.2 mg/kg/injection, schedule: Q01DX011 (ip), vehicle: saline, higher = larger tumour
  T/C: 52 % of control and 67 % of control
endpoint: mean tumor weight, dose: 3.3 mg/kg/injection, schedule: Q01DX011 (ip), vehicle: other, higher = larger tumour
  T/C: 72 % of control
endpoint: mean tumor weight, dose: 3.3 mg/kg/injection, schedule: Q01DX011 (ip), vehicle: saline, higher = larger tumour
  T/C: 36 % of control
endpoint: mean tumor weight, dose: 5.0 mg/kg/injection, schedule: Q01DX011 (ip), vehicle: other, higher = larger tumour
  T/C: 35 % of control
endpoint: mean tumor weight, dose: 5.0 mg/kg/injection, schedule: Q01DX011 (ip), vehicle: saline, higher = larger tumour
  T/C: 40 % of control
endpoint: mean tumor weight, dose: 7.5 mg/kg/injection, schedule: Q01DX011 (ip), vehicle: other, higher = larger tumour
  T/C: 11 % of control
endpoint: mean tumor weight, dose: 7.5 mg/kg/injection, schedule: Q01DX011 (ip), vehicle: saline, higher = larger tumour
  T/C: 19 % of control

## O=P1(N(CCCl)CCCl)NCCCO1 (stereo not drawn)
endpoint: mean survival time, dose: 100.0 mg/kg/injection, schedule: Q08DX002 (ip), vehicle: saline, higher = longer survival
  T/C: 188 % of control
endpoint: mean survival time, dose: 300.0 mg/kg/injection, schedule: Q08DX002 (ip), vehicle: saline, higher = longer survival
  T/C: 117 % of control
endpoint: mean tumor weight (est.), dose: 65.0 mg/kg/injection, schedule: Q01DX009 (ip), vehicle: saline, higher = larger tumour
  T/C: 3 % of control
endpoint: mean tumor weight (est.), dose: 108.0 mg/kg/injection, schedule: Q01DX001 (ip), vehicle: saline, higher = larger tumour
  T/C: 19 % of control and 37 % of control
endpoint: mean tumor weight (est.), dose: 300.0 mg/kg/injection, schedule: Q01DX001 (ip), vehicle: saline, higher = larger tumour
  T/C: 15 % of control
endpoint: mean tumor weight, dose: 6.25 mg/kg/injection, schedule: Q01DX011 (ip), vehicle: saline, higher = larger tumour
  T/C: 70 % of control
endpoint: mean tumor weight, dose: 12.0 mg/kg/injection, schedule: Q01DX011 (ip), vehicle: saline, higher = larger tumour
  T/C: 55 % of control
endpoint: mean tumor weight, dose: 12.5 mg/kg/injection, schedule: Q01DX011 (ip), vehicle: saline, higher = larger tumour
  T/C: 74 % of control
endpoint: mean tumor weight, dose: 17.0 mg/kg/injection, schedule: Q01DX011 (ip), vehicle: saline, higher = larger tumour
  T/C: 43 % of control
endpoint: mean tumor weight, dose: 22.5 mg/kg/injection, schedule: Q01DX011 (ip), vehicle: saline, higher = larger tumour
  T/C: 19 % of control and 40 % of control
endpoint: mean tumor weight, dose: 25.0 mg/kg/injection, schedule: Q01DX011 (ip), vehicle: saline, higher = larger tumour
  T/C: 3 % of control and 5 % of control and 12 % of control
endpoint: mean tumor weight, dose: 45.0 mg/kg/injection, schedule: Q01DX011 (ip), vehicle: saline, higher = larger tumour
  T/C: 2 % of control and 11 % of control
endpoint: median survival time, dose: 5.0 mg/kg/injection, schedule: Q01DX011 (ip), vehicle: saline, higher = longer survival
  T/C: 107 % of control
endpoint: median survival time, dose: 10.0 mg/kg/injection, schedule: Q01DX001 (ip), vehicle: saline, higher = longer survival
  T/C: 100 % of control
endpoint: median survival time, dose: 10.0 mg/kg/injection, schedule: Q01DX005 (ip), vehicle: saline, higher = longer survival
  T/C: 153 % of control and 160 % of control
endpoint: median survival time, dose: 10.0 mg/kg/injection, schedule: Q01DX009 (ip), vehicle: saline, higher = longer survival
  T/C: 90 % of control
endpoint: median survival time, dose: 10.0 mg/kg/injection, schedule: Q01DX011 (ip), vehicle: saline, higher = longer survival
  T/C: 89 % of control
endpoint: median survival time, dose: 20.0 mg/kg/injection, schedule: Q01DX001 (ip), vehicle: saline, higher = longer survival
  T/C: 113 % of control
endpoint: median survival time, dose: 20.0 mg/kg/injection, schedule: Q01DX005 (ip), vehicle: saline, higher = longer survival
  T/C: 113 % of control
endpoint: median survival time, dose: 20.0 mg/kg/injection, schedule: Q01DX009 (ip), vehicle: saline, higher = longer survival
  T/C: 104 % of control
endpoint: median survival time, dose: 20.0 mg/kg/injection, schedule: Q01DX011 (ip), vehicle: saline, higher = longer survival
  T/C: 89 % of control
endpoint: median survival time, dose: 23.0 mg/kg/injection, schedule: Q01DX009 (ip), vehicle: saline, higher = longer survival
  T/C: 121 % of control and 124 % of control
endpoint: median survival time, dose: 25.0 mg/kg/injection, schedule: Q01DX001 (ip), vehicle: saline, higher = longer survival
  T/C: 98 % of control and 101 % of control
endpoint: median survival time, dose: 25.0 mg/kg/injection, schedule: Q01DX004 (ip), vehicle: saline, higher = longer survival
  T/C: 154 % of control
endpoint: median survival time, dose: 26.0 mg/kg/injection, schedule: Q01DX001 (ip), vehicle: saline, higher = longer survival
  T/C: 94 % of control and 95 % of control
endpoint: median survival time, dose: 39.0 mg/kg/injection, schedule: Q01DX009 (ip), vehicle: saline, higher = longer survival
  T/C: 91 % of control
endpoint: median survival time, dose: 40.0 mg/kg/injection, schedule: Q01DX001 (ip), vehicle: saline, higher = longer survival
  T/C: 88 % of control
endpoint: median survival time, dose: 40.0 mg/kg/injection, schedule: Q01DX009 (ip), vehicle: saline, higher = longer survival
  T/C: 222 % of control
endpoint: median survival time, dose: 43.0 mg/kg/injection, schedule: Q01DX001 (ip), vehicle: saline, higher = longer survival
  T/C: 112 % of control and 117 % of control
endpoint: median survival time, dose: 44.0 mg/kg/injection, schedule: Q01DX005 (ip), vehicle: saline, higher = longer survival
  T/C: 184 % of control and 233 % of control
endpoint: median survival time, dose: 44.4 mg/kg/injection, schedule: Q04DX003 (ip), vehicle: saline, higher = longer survival
  T/C: 105 % of control and 224 % of control
endpoint: median survival time, dose: 50.0 mg/kg/injection, schedule: Q01DX001 (ip), vehicle: saline, higher = longer survival
  T/C: 112 % of control and 117 % of control
endpoint: median survival time, dose: 50.0 mg/kg/injection, schedule: Q01DX001 (ip), vehicle: water, higher = longer survival
  T/C: 118 % of control
endpoint: median survival time, dose: 50.0 mg/kg/injection, schedule: Q01DX004 (ip), vehicle: saline, higher = longer survival
  T/C: 225 % of control
endpoint: median survival time, dose: 50.0 mg/kg/injection, schedule: Q01DX005 (ip), vehicle: saline, higher = longer survival
  T/C: 158 % of control
endpoint: median survival time, dose: 50.0 mg/kg/injection, schedule: Q04DX003 (sc), vehicle: saline, higher = longer survival
  T/C: 208 % of control and 210 % of control
endpoint: median survival time, dose: 66.7 mg/kg/injection, schedule: Q04DX003 (ip), vehicle: saline, higher = longer survival
  T/C: 167 % of control and 233 % of control
endpoint: median survival time, dose: 67.0 mg/kg/injection, schedule: Q01DX005 (ip), vehicle: saline, higher = longer survival
  T/C: 220 % of control
endpoint: median survival time, dose: 70.0 mg/kg/injection, schedule: Q01DX001 (ip), vehicle: saline, higher = longer survival
  T/C: 108 % of control and 112 % of control
endpoint: median survival time, dose: 72.0 mg/kg/injection, schedule: Q01DX001 (ip), vehicle: saline, higher = longer survival
  T/C: 117 % of control
endpoint: median survival time, dose: 80.0 mg/kg/injection, schedule: Q01DX009 (ip), vehicle: saline, higher = longer survival
  T/C: 100 % of control
endpoint: median survival time, dose: 100.0 mg/kg/injection, schedule: Q01DX001 (ip), vehicle: water, higher = longer survival
  T/C: 190 % of control
endpoint: median survival time, dose: 100.0 mg/kg/injection, schedule: Q01DX005 (ip), vehicle: saline, higher = longer survival
  T/C: 207 % of control
endpoint: median survival time, dose: 100.0 mg/kg/injection, schedule: Q04DX003 (ip), vehicle: saline, higher = longer survival
  T/C: 192 % of control and 233 % of control
endpoint: median survival time, dose: 100.0 mg/kg/injection, schedule: Q08DX002 (ip), vehicle: saline, higher = longer survival
  T/C: 208 % of control
endpoint: median survival time, dose: 100.0 mg/kg/injection, schedule: Q11DX002 (ip), vehicle: saline, higher = longer survival
  T/C: 163 % of control
endpoint: median survival time, dose: 150.0 mg/kg/injection, schedule: Q04DX003 (ip), vehicle: saline, higher = longer survival
  T/C: 233 % of control
endpoint: median survival time, dose: 150.0 mg/kg/injection, schedule: Q07DX002 (ip), vehicle: saline, higher = longer survival
  T/C: 233 % of control
endpoint: median survival time, dose: 150.0 mg/kg/injection, schedule: Q07DX004 (ip), vehicle: saline, higher = longer survival
  T/C: 221 % of control
endpoint: median survival time, dose: 150.0 mg/kg/injection, schedule: Q11DX002 (ip), vehicle: saline, higher = longer survival
  T/C: 150 % of control and 165 % of control
endpoint: median survival time, dose: 200.0 mg/kg/injection, schedule: Q04DX003 (sc), vehicle: saline, higher = longer survival
  T/C: 85 % of control
endpoint: median survival time, dose: 225.0 mg/kg/injection, schedule: Q01DX001 (ip), vehicle: saline, higher = longer survival
  T/C: 153 % of control
endpoint: median survival time, dose: 225.0 mg/kg/injection, schedule: Q07DX002 (ip), vehicle: saline, higher = longer survival
  T/C: 173 % of control
endpoint: median survival time, dose: 225.0 mg/kg/injection, schedule: Q09DX002 (ip), vehicle: saline, higher = longer survival
  T/C: 183 % of control
endpoint: median survival time, dose: 225.0 mg/kg/injection, schedule: Q11DX002 (ip), vehicle: saline, higher = longer survival
  T/C: 166 % of control and 189 % of control
endpoint: median survival time, dose: 230.0 mg/kg/injection, schedule: Q01DX001 (ip), vehicle: saline, higher = longer survival
  T/C: 154 % of control
endpoint: median survival time, dose: 300.0 mg/kg/injection, schedule: Q07DX002 (ip), vehicle: saline, higher = longer survival
  T/C: 173 % of control
endpoint: median survival time, dose: 300.0 mg/kg/injection, schedule: Q08DX002 (ip), vehicle: saline, higher = longer survival
  T/C: 100 % of control
endpoint: median survival time, dose: 333.0 mg/kg/injection, schedule: Q01DX001 (ip), vehicle: saline, higher = longer survival
  T/C: 157 % of control and 193 % of control
endpoint: median survival time, dose: 500.0 mg/kg/injection, schedule: Q01DX001 (ip), vehicle: saline, higher = longer survival
  T/C: 72 % of control
endpoint: median survival time, dose: 556.0 mg/kg/injection, schedule: Q01DX001 (ip), vehicle: saline, higher = longer survival
  T/C: 47 % of control
endpoint: median tumor weight (est.), dose: 25.0 mg/kg/injection, schedule: Q01DX009 (ip), vehicle: saline, higher = larger tumour
  T/C: 50 % of control
endpoint: median tumor weight (est.), dose: 50.0 mg/kg/injection, schedule: Q01DX009 (ip), vehicle: saline, higher = larger tumour
  T/C: 11 % of control and 19 % of control
endpoint: median tumor weight (est.), dose: 75.0 mg/kg/injection, schedule: Q01DX001 (ip), vehicle: saline, higher = larger tumour
  T/C: 76 % of control
endpoint: median tumor weight (est.), dose: 103.0 mg/kg/injection, schedule: Q01DX001 (ip), vehicle: saline, higher = larger tumour
  T/C: 38 % of control
endpoint: median tumor weight (est.), dose: 150.0 mg/kg/injection, schedule: Q01DX001 (ip), vehicle: saline, higher = larger tumour
  T/C: 34 % of control
endpoint: median tumor weight (est.), dose: 209.0 mg/kg/injection, schedule: Q01DX001 (ip), vehicle: saline, higher = larger tumour
  T/C: 16 % of control
endpoint: median tumor weight (est.), dose: 300.0 mg/kg/injection, schedule: Q01DX001 (ip), vehicle: saline, higher = larger tumour
  T/C: 2 % of control
endpoint: median tumor weight (est.), dose: 312.0 mg/kg/injection, schedule: Q01DX001 (ip), vehicle: saline, higher = larger tumour
  T/C: 7 % of control

## c1cn[nH]c1
endpoint: mean tumor weight, dose: 20.0 mg/kg/injection, schedule: Q01DX011 (ip), vehicle: water, higher = larger tumour
  T/C: 54 % of control
endpoint: mean tumor weight, dose: 40.0 mg/kg/injection, schedule: Q01DX011 (ip), vehicle: water, higher = larger tumour
  T/C: 45 % of control
endpoint: mean tumor weight, dose: 80.0 mg/kg/injection, schedule: Q01DX011 (ip), vehicle: water, higher = larger tumour
  T/C: 32 % of control
